A word on the IC50: it is the concentration needed to halve the response being measured.

From patent US10179790B2 (THOMAS HELLEDAYS STIFTELSE FOR MEDICINSK FORSKNING, priority 2014, dated 2019) come the findings set out here.

For assay [1], the target named is MTH1 (Homo sapiens, UniProt P36639). Description: MTH1 enzymatic assay and IC50 value determination (malachite green, 96- and 384-well format). The class given is biochemical. Particulars: hydrolysis of dGTP (100 μM), MTH1 6 nM, pyrophosphatase-coupled malachite green, 15 minutes at 22° C. In short, it runs like this: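 MTH1 (6 nM) hydrolysed dGTP (100 μM) for 15 min at 22 °C in Tris-acetate buffer with Mg2+, DTT, Tween 20 and excess pyrophosphatase, 1% DMSO. Pi detected with malachite green at 630 nm. IC50 from nonlinear 4-parameter fit of 11–12-point dilution series.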

Assay [2] has as its system cancer cell. Description: Cell viability assay (resazurin). Format: cell-based. The following applies: 72 h; 3 days with compound, resazurin fluorescence; cell line not named. In short, it runs like this:
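Cells in DMEM GlutaMAX or line-appropriate medium are exposed to compound for 3 days at 37 °C, 5% CO2. Viability is read as resazurin fluorescence (Ex544/Em590) after 2 h incubation. In the 384-well format, cells are seeded onto 11 pre-dispensed concentrations (final DMSO <1%) and read after 3 h resazurin.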
In general terms: Alamar Blue is a resazurin reagent that responds to reducing activity.

Consider `Cc1c(Cl)cccc1-c1cc(NCCc2ccc(NC(=O)OC(C)C)cc2)nc(N)n1` [Example 119, isopropyl N-[4-[2-[[2-amino-6-(3-chloro-2-methyl-phenyl)pyrimidin-4-yl]amino]ethyl]phenyl]carbamate], for which the IC50 is less than 200 nM in assay [1] and less than 500 nM in assay [2].

As for `Cc1c(Cl)cccc1-c1cc(NCCc2ccc(NC(=O)OCC(C)C)cc2)nc(N)n1` [Example 120, isobutyl N-[4-[2-[[2-amino-6-(3-chloro-2-methyl-phenyl)pyrimidin-4-yl]amino]ethyl]phenyl]carbamate], the IC50 in assay [1] is less than 200 nM; in assay [2], less than 500 nM.

Take `Cc1c(Cl)cccc1-c1cc(NCCc2ccc(NC(=O)OCC(C)(C)C)cc2)nc(N)n1` [Example 121, 2,2-dimethylpropyl N-[4-[2-[[2-amino-6-(3-chloro-2-methyl-phenyl)pyrimidin-4-yl]amino]ethyl]phenyl]carbamate]: the IC50 in assay [1] was less than 200 nM; in assay [2], less than 500 nM.

With `COCCOC(=O)Nc1ccc(CCNc2cc(-c3cccc(Cl)c3C)nc(N)n2)cc1` [Example 122, 2-methoxyethyl N-[4-[2-[[2-amino-6-(3-chloro-2-methyl-phenyl)pyrimidin-4-yl]amino]ethyl]phenyl]carbamate], the IC50 in assay [1] is less than 200 nM; in assay [2], less than 500 nM.

Regarding `CC#CCOC(=O)Nc1ccc(CCNc2cc(-c3cccc(Cl)c3C)nc(N)n2)cc1` [Example 123, but-2-ynyl N-[4-[2-[[2-amino-6-(3-chloro-2-methyl-phenyl)pyrimidin-4-yl]amino]ethyl]phenyl]carbamate], the IC50 in assay [1] is less than 200 nM; in assay [2], less than 500 nM.

As to `Cc1c(Cl)cccc1-c1cc(NCCc2ccc(NC#N)cc2)nc(N)n1` [Example 124, [4-[2-[[2-amino-6-(3-chloro-2-methyl-phenyl)pyrimidin-4-yl]amino]ethyl]phenyl]cyanamide], the IC50 in assay [1] is less than 200 nM; in assay [2], less than 500 nM.

In the case of `Cc1cccc(-c2cc(NCCNc3ccnc(N)n3)nc(N)n2)c1C` [Example 126, 4-N-(2-{[2-amino-6-(2,3-dimethylphenyl)pyrimidin-4-yl]amino}ethyl)pyrimidine-2,4-diamine], the figures for the half-maximal inhibitory concentration (IC50) in assay [1] and in assay [2] were less than 200 nM and less than 500 nM, respectively.

Regarding `Cc1cccc(-c2cc(NCCNc3ccc(N)nc3)nc(N)n2)c1C` [Example 127, 5-N-(2-{[2-amino-6-(2,3-dimethylphenyl)pyrimidin-4-yl]amino}ethyl)pyridine-2,5-diamine], the IC50 is less than 200 nM in assay [1] and less than 500 nM in assay [2].

Consider `Cc1cccc(-c2cc(NCCNc3ccc(N)cc3F)nc(N)n2)c1C` [Example 128, 1-N-(2-{[2-amino-6-(2,3-dimethylphenyl)pyrimidin-4-yl]amino}ethyl)-2-fluorobenzene-1,4-diamine], for which the values for the IC50 in assay [1] and in assay [2] were less than 200 nM and less than 500 nM, respectively.

As for `Cc1c(Cl)cccc1-c1cc(NCCCNc2ccc(C(N)=O)cc2)nc(N)n1` [Example 143, 4-[3-[[2-amino-6-(3-chloro-2-methyl-phenyl)pyrimidin-4-yl]amino]propylamino]benzamide], the results for the IC50 in assay [1] and in assay [2] were less than 200 nM and less than 500 nM, respectively.

With `CNS(=O)(=O)c1ccc(NCCCNc2cc(-c3cccc(Cl)c3C)nc(N)n2)cc1` [Example 144, 4-[3-[[2-amino-6-(3-chloro-2-methyl-phenyl)pyrimidin-4-yl]amino]propylamino]-N-methyl-benzenesulfonamide], the figures for the IC50 in assay [1] and in assay [2] were less than 200 nM and less than 500 nM, respectively.

Consider `Cc1nc2ccc(NCCCNc3cc(-c4cccc(Cl)c4C)nc(N)n3)cc2s1` [Example 145, 6-(3-chloro-2-methyl-phenyl)-N4-[3-[(2-methyl-1,3-benzothiazol-6-yl)amino]propyl]pyrimidine-2,4-diamine], for which the IC50 was less than 200 nM in assay [1] and less than 500 nM in assay [2].

On to `Cc1c(Cl)cccc1-c1cc(NCCNc2nccc(C(N)=O)n2)nc(N)n1` [Example 146, 2-[2-[[2-amino-6-(3-chloro-2-methyl-phenyl)pyrimidin-4-yl]amino]ethylamino]pyrimidine-4-carboxamide], for which the IC50 is less than 200 nM in assay [1] and less than 500 nM in assay [2].

As to `CCNC(=O)Nc1cccc(CCNc2cc(-c3cccc(Cl)c3C)nc(N)n2)c1` [Example 148, 1-[3-[2-[[2-amino-6-(3-chloro-2-methyl-phenyl)pyrimidin-4-yl]amino]ethyl]phenyl]-3-ethyl-urea], the IC50 in assay [1] was less than 200 nM; in assay [2] it was less than 500 nM.

In the case of `Cc1c(Cl)cccc1-c1cc(NCCc2cccc(NC(=O)NC(C)(C)C)c2)nc(N)n1` [Example 149, 1-[3-[2-[[2-amino-6-(3-chloro-2-methyl-phenyl)pyrimidin-4-yl]amino]ethyl]phenyl]-3-tert-butyl-urea], the IC50 in assay [1] was less than 200 nM; in assay [2] it was less than 500 nM.

As for `Cc1c(Cl)cccc1-c1cc(NCCc2cccc(NC(=O)N3CCOCC3)c2)nc(N)n1` [Example 150, N-[3-[2-[[2-amino-6-(3-chloro-2-methyl-phenyl)pyrimidin-4-yl]amino]ethyl]phenyl]morpholine-4-carboxamide], the IC50 is less than 200 nM in assay [1] and less than 500 nM in assay [2].

For the molecule `Cc1c(Cl)cccc1-c1cc(NCCc2cccc(NC(=O)N(C)C)c2)nc(N)n1` [Example 151, 3-[3-[2-[[2-amino-6-(3-chloro-2-methyl-phenyl)pyrimidin-4-yl]amino]ethyl]phenyl]-1,1-dimethyl-urea], the IC50 is less than 200 nM in assay [1] and less than 500 nM in assay [2].

On to `Cc1c(Cl)cccc1-c1cc(NCCc2cccc(NC(=O)N3CCCC3)c2)nc(N)n1` [Example 152, N-[3-[2-[[2-amino-6-(3-chloro-2-methyl-phenyl)pyrimidin-4-yl]amino]ethyl]phenyl]pyrrolidine-1-carboxamide], for which the figures for the IC50 in assay [1] and in assay [2] were less than 200 nM and less than 500 nM, respectively.

In the case of `Cc1c(Cl)cccc1-c1cc(NCCc2cccc(NC(=O)OC(C)C)c2)nc(N)n1` [Example 153, isopropyl N-[3-[2-[[2-amino-6-(3-chloro-2-methyl-phenyl)pyrimidin-4-yl]amino]ethyl]phenyl]carbamate], the IC50 was less than 200 nM in assay [1] and less than 500 nM in assay [2].

Consider `Cc1c(Cl)cccc1-c1cc(NCCc2cccc(NC(=O)OCC(C)C)c2)nc(N)n1` [Example 154, isobutyl N-[3-[2-[[2-amino-6-(3-chloro-2-methyl-phenyl)pyrimidin-4-yl]amino]ethyl]phenyl]carbamate], for which the results for the IC50 in assay [1] and in assay [2] were less than 200 nM and less than 500 nM, respectively.

For `Cc1c(Cl)cccc1-c1cc(NCCc2cccc(NC(=O)OCC(C)(C)C)c2)nc(N)n1` [Example 155, 2,2-dimethylpropyl N-[3-[2-[[2-amino-6-(3-chloro-2-methyl-phenyl)pyrimidin-4-yl]amino]ethyl]phenyl]carbamate], the IC50 was less than 200 nM in assay [1] and less than 500 nM in assay [2].

For `Cc1c(Cl)cccc1-c1cc(NCCNc2ncc(C(N)=O)c(C(F)(F)F)n2)nc(N)n1` [Example 159, 2-[2-[[2-amino-6-(3-chloro-2-methyl-phenyl)pyrimidin-4-yl]amino]ethylamino]-4-(trifluoromethyl)pyrimidine-5-carboxamide], the IC50 in assay [1] is less than 200 nM; in assay [2], less than 500 nM.

`Cc1c(Cl)cccc1-c1cc(NCCNc2ccc(S(=O)(=O)C(C)C)cc2)nc(N)n1` [Example 160, 6-(3-chloro-2-methyl-phenyl)-N4-[2-(4-isopropylsulfonylanilino)ethyl]pyrimidine-2,4-diamine]: the 50% inhibitory concentration (IC50) in assay [1] was less than 200 nM; in assay [2], less than 500 nM.

As to `Cc1c(Cl)cccc1-c1cc(NCCNc2ccc([S+](C)[O-])cc2)nc(N)n1` (stereo not shown) [Example 161, 6-(3-chloro-2-methyl-phenyl)-N4-[2-(4-methylsulfinylanilino)ethyl]pyrimidine-2,4-diamine], the IC50 is less than 200 nM in assay [1] and less than 500 nM in assay [2].

As to `Cc1c(Cl)cccc1-c1cc(NCCCNc2ccc(S(N)(=O)=O)cc2)nc(N)n1` [Example 163, 4-[3-[[2-amino-6-(3-chloro-2-methyl-phenyl)pyrimidin-4-yl]amino]propylamino]benzenesulfonamide], the half-maximal inhibitory concentration (IC50) is less than 200 nM in assay [1] and less than 500 nM in assay [2].

On to `Cc1c(Cl)cccc1-c1cc(NCC(C)(C)CNc2ccc(S(N)(=O)=O)cc2)nc(N)n1` [Example 164, 4-[[3-[[2-amino-6-(3-chloro-2-methyl-phenyl)pyrimidin-4-yl]amino]-2,2-dimethyl-propyl]amino]benzenesulfonamide], for which the IC50 is less than 200 nM in assay [1] and less than 500 nM in assay [2].

For the molecule `Cc1nc2ccc(NCC(C)(C)CNc3cc(-c4cccc(Cl)c4C)nc(N)n3)cc2s1` [Example 165, 6-(3-chloro-2-methyl-phenyl)-N4-[2,2-dimethyl-3-[(2-methyl-1,3-benzothiazol-6-yl)amino]propyl]pyrimidine-2,4-diamine], the IC50 was less than 200 nM in assay [1] and less than 500 nM in assay [2].

On to `Cc1c(Cl)cccc1-c1cc(NCCNc2cccc(S(=O)(=O)C(C)C)c2)nc(N)n1` [Example 166, 6-(3-Chloro-2-methyl-phenyl)-N4-[2-(3-isopropylsulfonylanilino)ethyl]pyrimidine-2,4-diamine], for which the IC50 in assay [1] is less than 200 nM; in assay [2], less than 500 nM.

As for `Cc1c(Cl)cccc1-c1cc(NCCCNc2ccc(C(N)=O)cn2)nc(N)n1` [Example 167, 6-[3-[[2-amino-6-(3-chloro-2-methyl-phenyl)pyrimidin-4-yl]amino]propylamino]pyridine-3-carboxamide], the 50% inhibitory concentration (IC50) was less than 200 nM in assay [1] and less than 500 nM in assay [2].
